According to PubChem BioAssay (NCI):
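How tested: cells in 96-well plates exposed to compound for 48 hours at five concentrations. At the TGI there is no net growth.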

Assays:
Test in all cases: growth of human tumour cells (NCI), 48 h
M14 melanoma = test system: M14 melanoma
EKVX NSCLC = test system: EKVX NSCLC
TK-10 renal = test system: TK-10 renal
SK-MEL-5 melanoma = test system: SK-MEL-5 melanoma
SN12C renal = test system: SN12C renal
SF-295 CNS = test system: SF-295 CNS
DU-145 prostate = test system: DU-145 prostate
U251 CNS = test system: U251 CNS
ACHN renal = test system: ACHN renal
SK-MEL-2 melanoma = test system: SK-MEL-2 melanoma
SNB-19 CNS = test system: SNB-19 CNS
COLO 205 colon = test system: COLO 205 colon
OVCAR-4 ovarian = test system: OVCAR-4 ovarian
RPMI-8226 leukemia = test system: RPMI-8226 leukemia
NCI-H226 lung = test system: NCI-H226 lung
UACC-257 melanoma = test system: UACC-257 melanoma
A498 renal = test system: A498 renal
HOP-92 NSCLC = test system: HOP-92 NSCLC
PC-3 prostate = test system: PC-3 prostate
SK-OV-3 ovarian = test system: SK-OV-3 ovarian
SW-620 colon = test system: SW-620 colon
MALME-3M melanoma = test system: MALME-3M melanoma
HCC-2998 colon = test system: HCC-2998 colon
HT29 colon = test system: HT29 colon
NCI-H522 lung = test system: NCI-H522 lung
786-0 renal = test system: 786-0 renal
LOX IMVI melanoma = test system: LOX IMVI melanoma
NCI-H23 lung = test system: NCI-H23 lung
T-47D breast = test system: T-47D breast
KM12 colon = test system: KM12 colon
CAKI-1 renal = test system: CAKI-1 renal
UO-31 renal = test system: UO-31 renal
OVCAR-3 ovarian = test system: OVCAR-3 ovarian
HL-60(TB) leukemia = test system: HL-60(TB) leukemia
NCI-H460 lung = test system: NCI-H460 lung
UACC-62 melanoma = test system: UACC-62 melanoma
HS 578T breast = test system: HS 578T breast
OVCAR-5 ovarian = test system: OVCAR-5 ovarian
OVCAR-8 ovarian = test system: OVCAR-8 ovarian
A549 NSCLC = test system: A549 NSCLC
RXF 393 renal = test system: RXF 393 renal
HOP-62 NSCLC = test system: HOP-62 NSCLC
MOLT-4 leukemia = test system: MOLT-4 leukemia
SNB-75 CNS = test system: SNB-75 CNS
MDA-N = test system: MDA-N
SF-539 CNS = test system: SF-539 CNS
IGROV1 ovarian = test system: IGROV1 ovarian
MDA-MB-231 breast = test system: MDA-MB-231 breast
K-562 leukemia = test system: K-562 leukemia
NCI/ADR-RES ovarian = test system: NCI/ADR-RES ovarian
BT-549 breast = test system: BT-549 breast
SK-MEL-28 melanoma = test system: SK-MEL-28 melanoma
HCT-116 colon = test system: HCT-116 colon
SR leukemia = test system: SR leukemia
MCF7 breast = test system: MCF7 breast
MDA-MB-435 = test system: MDA-MB-435
CCRF-CEM leukemia = test system: CCRF-CEM leukemia
HCT-15 colon = test system: HCT-15 colon
SF-268 CNS = test system: SF-268 CNS
M19-MEL melanoma = test system: M19-MEL melanoma
SNB-78 CNS = test system: SNB-78 CNS
DLD-1 colon = test system: DLD-1 colon
LXFL 529 NSCLC = test system: LXFL 529 NSCLC
KM20L2 colon = test system: KM20L2 colon
HOP-18 NSCLC = test system: HOP-18 NSCLC
DMS 114 small cell lung = test system: DMS 114 small cell lung

CC(NC(=O)c1ccc(OP(=O)(OCc2ccc([N+](=O)[O-])o2)N(C)CCCCCl)cc1)c1ccc(OCC2CCCCC2)c(C(N)=O)c1 (configuration not stated)
TGI (M14 melanoma): 22.7 µM
TGI (EKVX NSCLC): > 100 µM
TGI (TK-10 renal): 60.9 µM
TGI (SK-MEL-5 melanoma): 6.14 µM
TGI (SN12C renal): 6.15 µM
TGI (SF-295 CNS): > 32.4 µM
TGI (DU-145 prostate): > 29 µM
TGI (U251 CNS): > 32.3 µM
TGI (ACHN renal): > 35.4 µM
TGI (SK-MEL-2 melanoma): 14.5 µM
TGI (SNB-19 CNS): > 100 µM
TGI (COLO 205 colon): 6.24 µM
TGI (OVCAR-4 ovarian): 17.7 µM
TGI (RPMI-8226 leukemia): 3.24 µM
TGI (NCI-H226 lung): 26.2 µM
TGI (UACC-257 melanoma): > 39.8 µM
TGI (A498 renal): 63.2 µM
TGI (HOP-92 NSCLC): 4.75 µM
TGI (PC-3 prostate): 49.1 µM
TGI (SK-OV-3 ovarian): > 100 µM
TGI (SW-620 colon): > 43.1 µM
TGI (MALME-3M melanoma): 10.7 µM
TGI (HCC-2998 colon): > 21.7 µM
TGI (HT29 colon): 7.85 µM
TGI (NCI-H522 lung): 6.44 µM
TGI (786-0 renal): > 37.2 µM
TGI (LOX IMVI melanoma): 5.43 µM
TGI (NCI-H23 lung): > 52.2 µM
TGI (T-47D breast): > 20.1 µM
TGI (KM12 colon): 13.5 µM
TGI (CAKI-1 renal): > 58 µM
TGI (UO-31 renal): 6.39 µM
TGI (OVCAR-3 ovarian): 15.7 µM
TGI (HL-60(TB) leukemia): 12.3 µM
TGI (NCI-H460 lung): 14.5 µM
TGI (UACC-62 melanoma): 7.39 µM
TGI (HS 578T breast): > 41.6 µM
TGI (OVCAR-5 ovarian): > 47.6 µM
TGI (OVCAR-8 ovarian): > 74.4 µM
TGI (A549 NSCLC): > 21.4 µM
TGI (RXF 393 renal): 9.25 µM
TGI (HOP-62 NSCLC): 36.7 µM
TGI (MOLT-4 leukemia): 6.89 µM
TGI (SNB-75 CNS): 25.3 µM
TGI (MDA-N): 24 µM
TGI (SF-539 CNS): 10.1 µM
TGI (IGROV1 ovarian): 8.34 µM
TGI (MDA-MB-231 breast): 9.66 µM
TGI (K-562 leukemia): 18 µM
TGI (NCI/ADR-RES ovarian): > 100 µM
TGI (BT-549 breast): 5.94 µM
TGI (SK-MEL-28 melanoma): 7 µM
TGI (HCT-116 colon): 9.5 µM
TGI (SR leukemia): 4.43 µM
TGI (MCF7 breast): 17.1 µM
TGI (MDA-MB-435): 6.3 µM
TGI (CCRF-CEM leukemia): 0.842 µM
TGI (HCT-15 colon): 8.14 µM
TGI (SF-268 CNS): 10.9 µM

COc1cc2c(cc1OC)C(Cc1cc(Br)c(OC)c(OC)c1)=[N+](C)CC2
TGI (M14 melanoma): > 100 µM
TGI (EKVX NSCLC): > 100 µM
TGI (TK-10 renal): > 100 µM
TGI (M19-MEL melanoma): > 100 µM
TGI (SK-MEL-5 melanoma): > 100 µM
TGI (SN12C renal): > 100 µM
TGI (SF-295 CNS): > 100 µM
TGI (U251 CNS): > 100 µM
TGI (ACHN renal): > 100 µM
TGI (SK-MEL-2 melanoma): > 100 µM
TGI (SNB-19 CNS): > 100 µM
TGI (COLO 205 colon): > 100 µM
TGI (OVCAR-4 ovarian): > 100 µM
TGI (RPMI-8226 leukemia): > 100 µM
TGI (NCI-H226 lung): > 100 µM
TGI (UACC-257 melanoma): > 100 µM
TGI (HOP-92 NSCLC): > 100 µM
TGI (SK-OV-3 ovarian): > 100 µM
TGI (SW-620 colon): > 100 µM
TGI (MALME-3M melanoma): > 100 µM
TGI (HCC-2998 colon): > 100 µM
TGI (HT29 colon): > 100 µM
TGI (NCI-H522 lung): > 100 µM
TGI (786-0 renal): > 100 µM
TGI (LOX IMVI melanoma): > 100 µM
TGI (NCI-H23 lung): > 100 µM
TGI (SNB-78 CNS): > 100 µM
TGI (KM12 colon): > 100 µM
TGI (CAKI-1 renal): > 100 µM
TGI (UO-31 renal): > 100 µM
TGI (OVCAR-3 ovarian): > 100 µM
TGI (HL-60(TB) leukemia): > 100 µM
TGI (NCI-H460 lung): > 100 µM
TGI (UACC-62 melanoma): > 100 µM
TGI (OVCAR-5 ovarian): > 100 µM
TGI (DLD-1 colon): > 100 µM
TGI (OVCAR-8 ovarian): > 100 µM
TGI (A549 NSCLC): > 100 µM
TGI (RXF 393 renal): > 100 µM
TGI (HOP-62 NSCLC): > 100 µM
TGI (SNB-75 CNS): > 100 µM
TGI (SF-539 CNS): > 100 µM
TGI (IGROV1 ovarian): > 100 µM
TGI (LXFL 529 NSCLC): > 100 µM
TGI (K-562 leukemia): > 100 µM
TGI (KM20L2 colon): > 100 µM
TGI (SK-MEL-28 melanoma): > 100 µM
TGI (HCT-116 colon): > 100 µM
TGI (HOP-18 NSCLC): > 100 µM
TGI (CCRF-CEM leukemia): > 100 µM
TGI (HCT-15 colon): > 100 µM
TGI (SF-268 CNS): > 100 µM
TGI (DMS 114 small cell lung): 57 µM
